# Measurements as given in PubChem BioAssay (NCI).
#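 All cell lines were grown in 96-well plates and treated with compound for 48 hours. TGI is the concentration that stops growth completely.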
# Tests used:
# Assay in all cases: NCI tumour cell line growth inhibition, 48 h
# NCI-H226 lung = tested on: NCI-H226 lung
# SF-295 CNS = tested on: SF-295 CNS
# HCT-15 colon = tested on: HCT-15 colon
# M14 melanoma = tested on: M14 melanoma
# SNB-19 CNS = tested on: SNB-19 CNS
# UACC-62 melanoma = tested on: UACC-62 melanoma
# MDA-N = tested on: MDA-N
# OVCAR-3 ovarian = tested on: OVCAR-3 ovarian
# NCI-H460 lung = tested on: NCI-H460 lung
# SR leukemia = tested on: SR leukemia
# SK-MEL-5 melanoma = tested on: SK-MEL-5 melanoma
# T-47D breast = tested on: T-47D breast
# RXF 393 renal = tested on: RXF 393 renal
# A549 NSCLC = tested on: A549 NSCLC
# CAKI-1 renal = tested on: CAKI-1 renal
# NCI-H522 lung = tested on: NCI-H522 lung
# COLO 205 colon = tested on: COLO 205 colon
# NCI-H23 lung = tested on: NCI-H23 lung
# SK-MEL-28 melanoma = tested on: SK-MEL-28 melanoma
# SF-268 CNS = tested on: SF-268 CNS
# LOX IMVI melanoma = tested on: LOX IMVI melanoma
# CCRF-CEM leukemia = tested on: CCRF-CEM leukemia
# MCF7 breast = tested on: MCF7 breast
# MDA-MB-231 breast = tested on: MDA-MB-231 breast
# KM12 colon = tested on: KM12 colon
# UO-31 renal = tested on: UO-31 renal
# NCI/ADR-RES ovarian = tested on: NCI/ADR-RES ovarian
# IGROV1 ovarian = tested on: IGROV1 ovarian
# SF-539 CNS = tested on: SF-539 CNS
# TK-10 renal = tested on: TK-10 renal
# HS 578T breast = tested on: HS 578T breast
# HOP-62 NSCLC = tested on: HOP-62 NSCLC
# HT29 colon = tested on: HT29 colon
# DU-145 prostate = tested on: DU-145 prostate
# SN12C renal = tested on: SN12C renal
# OVCAR-4 ovarian = tested on: OVCAR-4 ovarian
# A498 renal = tested on: A498 renal
# PC-3 prostate = tested on: PC-3 prostate
# SK-OV-3 ovarian = tested on: SK-OV-3 ovarian
# BT-549 breast = tested on: BT-549 breast
# RPMI-8226 leukemia = tested on: RPMI-8226 leukemia
# 786-0 renal = tested on: 786-0 renal
# MALME-3M melanoma = tested on: MALME-3M melanoma
# K-562 leukemia = tested on: K-562 leukemia
# MOLT-4 leukemia = tested on: MOLT-4 leukemia
# HCT-116 colon = tested on: HCT-116 colon
# EKVX NSCLC = tested on: EKVX NSCLC
# HCC-2998 colon = tested on: HCC-2998 colon
# OVCAR-8 ovarian = tested on: OVCAR-8 ovarian
# HL-60(TB) leukemia = tested on: HL-60(TB) leukemia
# HOP-92 NSCLC = tested on: HOP-92 NSCLC
# MDA-MB-435 = tested on: MDA-MB-435
# ACHN renal = tested on: ACHN renal
# UACC-257 melanoma = tested on: UACC-257 melanoma
# SNB-75 CNS = tested on: SNB-75 CNS
# SW-620 colon = tested on: SW-620 colon
# OVCAR-5 ovarian = tested on: OVCAR-5 ovarian
# SK-MEL-2 melanoma = tested on: SK-MEL-2 melanoma
# U251 CNS = tested on: U251 CNS
smiles,measurement,setting,value
O=[N+]([O-])C(=C(NCc1ccccc1)NCc1ccccc1)C(Cl)=C(Cl)Cl,TGI,NCI-H226 lung,90.7 µM
same,TGI,SF-295 CNS,60.8 µM
same,TGI,HCT-15 colon,62.8 µM
same,TGI,M14 melanoma,75.8 µM
same,TGI,SNB-19 CNS,> 100 µM
same,TGI,UACC-62 melanoma,98.7 µM
same,TGI,MDA-N,74.7 µM
same,TGI,OVCAR-3 ovarian,69.2 µM
same,TGI,NCI-H460 lung,> 100 µM
same,TGI,SR leukemia,57.8 µM
same,TGI,SK-MEL-5 melanoma,36 µM
same,TGI,T-47D breast,92.9 µM
same,TGI,RXF 393 renal,98.4 µM
same,TGI,A549 NSCLC,> 100 µM
same,TGI,CAKI-1 renal,55.6 µM
same,TGI,NCI-H522 lung,79.1 µM
same,TGI,COLO 205 colon,36.1 µM
same,TGI,NCI-H23 lung,96.9 µM
same,TGI,SK-MEL-28 melanoma,> 100 µM
same,TGI,SF-268 CNS,69.4 µM
same,TGI,LOX IMVI melanoma,37.8 µM
same,TGI,CCRF-CEM leukemia,50.7 µM
same,TGI,MCF7 breast,> 100 µM
same,TGI,MDA-MB-231 breast,81.2 µM
same,TGI,KM12 colon,47.7 µM
same,TGI,UO-31 renal,> 100 µM
same,TGI,NCI/ADR-RES ovarian,> 100 µM
same,TGI,IGROV1 ovarian,> 100 µM
same,TGI,SF-539 CNS,> 100 µM
same,TGI,TK-10 renal,> 100 µM
same,TGI,HS 578T breast,> 100 µM
same,TGI,HOP-62 NSCLC,> 100 µM
same,TGI,HT29 colon,> 100 µM
same,TGI,DU-145 prostate,> 100 µM
same,TGI,SN12C renal,> 100 µM
same,TGI,OVCAR-4 ovarian,> 100 µM
same,TGI,A498 renal,> 100 µM
same,TGI,PC-3 prostate,> 100 µM
same,TGI,SK-OV-3 ovarian,> 100 µM
same,TGI,BT-549 breast,> 100 µM
same,TGI,RPMI-8226 leukemia,68.4 µM
same,TGI,786-0 renal,> 100 µM
same,TGI,MALME-3M melanoma,55.7 µM
same,TGI,K-562 leukemia,54.2 µM
same,TGI,MOLT-4 leukemia,52 µM
same,TGI,HCT-116 colon,> 100 µM
same,TGI,EKVX NSCLC,> 100 µM
same,TGI,HCC-2998 colon,> 100 µM
same,TGI,OVCAR-8 ovarian,> 100 µM
same,TGI,HL-60(TB) leukemia,45.9 µM
same,TGI,HOP-92 NSCLC,> 100 µM
same,TGI,MDA-MB-435,46.7 µM
same,TGI,ACHN renal,55.9 µM
same,TGI,UACC-257 melanoma,82.4 µM
same,TGI,SNB-75 CNS,43.5 µM
same,TGI,SW-620 colon,> 100 µM
CC1(C)N=C(N)N=C(N)N1c1cccc(CSc2ccccc2)c1,TGI,NCI-H226 lung,> 100 µM
same,TGI,SF-295 CNS,> 100 µM
same,TGI,HCT-15 colon,> 100 µM
same,TGI,M14 melanoma,11.2 µM
same,TGI,SNB-19 CNS,> 100 µM
same,TGI,OVCAR-5 ovarian,> 100 µM
same,TGI,UACC-62 melanoma,> 100 µM
same,TGI,MDA-N,> 100 µM
same,TGI,OVCAR-3 ovarian,> 100 µM
same,TGI,NCI-H460 lung,> 100 µM
same,TGI,SR leukemia,14.2 µM
same,TGI,SK-MEL-5 melanoma,13.5 µM
same,TGI,T-47D breast,> 100 µM
same,TGI,RXF 393 renal,95.9 µM
same,TGI,A549 NSCLC,> 100 µM
same,TGI,CAKI-1 renal,> 100 µM
same,TGI,NCI-H522 lung,27.3 µM
same,TGI,COLO 205 colon,29.1 µM
same,TGI,NCI-H23 lung,> 100 µM
same,TGI,SK-MEL-28 melanoma,> 100 µM
same,TGI,SF-268 CNS,> 100 µM
same,TGI,LOX IMVI melanoma,> 100 µM
same,TGI,MCF7 breast,> 100 µM
same,TGI,MDA-MB-231 breast,> 100 µM
same,TGI,KM12 colon,> 100 µM
same,TGI,UO-31 renal,> 100 µM
same,TGI,NCI/ADR-RES ovarian,> 100 µM
same,TGI,IGROV1 ovarian,25 µM
same,TGI,SF-539 CNS,> 100 µM
same,TGI,TK-10 renal,> 100 µM
same,TGI,HS 578T breast,68 µM
same,TGI,HOP-62 NSCLC,> 100 µM
same,TGI,HT29 colon,> 100 µM
same,TGI,DU-145 prostate,> 100 µM
same,TGI,SN12C renal,> 100 µM
same,TGI,OVCAR-4 ovarian,> 100 µM
same,TGI,SK-MEL-2 melanoma,> 100 µM
same,TGI,A498 renal,> 100 µM
same,TGI,U251 CNS,> 100 µM
same,TGI,PC-3 prostate,> 100 µM
same,TGI,SK-OV-3 ovarian,> 100 µM
same,TGI,BT-549 breast,> 100 µM
same,TGI,RPMI-8226 leukemia,> 100 µM
same,TGI,786-0 renal,> 100 µM
same,TGI,MALME-3M melanoma,> 100 µM
same,TGI,K-562 leukemia,> 100 µM
same,TGI,MOLT-4 leukemia,> 100 µM
same,TGI,HCT-116 colon,> 100 µM
same,TGI,EKVX NSCLC,> 100 µM
same,TGI,HCC-2998 colon,> 100 µM
same,TGI,OVCAR-8 ovarian,> 100 µM
same,TGI,HL-60(TB) leukemia,13.3 µM
same,TGI,HOP-92 NSCLC,> 100 µM
same,TGI,MDA-MB-435,> 100 µM
same,TGI,ACHN renal,> 100 µM
same,TGI,UACC-257 melanoma,> 100 µM
same,TGI,SNB-75 CNS,43.8 µM
same,TGI,SW-620 colon,> 100 µM
